{
  "source": "patent US20250009748A1",
  "about": "(NAVIRE PHARMA, INC., priority 2021, published 2025)",
  "key": {"[1]": {"tested_on": "NCI-H358 subcutaneous tumors (human NSCLC, KRAS G12C)", "assay": "NCI-H358 subcutaneous xenograft efficacy study, formula (10b) and Compound A (Example 1)", "assay_type": "in vivo, NOD/SCID mice", "conditions": "for Day 21 TGI: n = 8", "source_text": "Cell lines. The NCI-H358 cell line was purchased from ATCC. It is a human NSCLC cell line, harboring heterozygous mutation of KRAS G12C.\nTest animals. Female NOD/SCID mice (Beijing Anikeeper Biotech Co., Ltd) were utilized in this experiment. Animals were 6˜8 weeks of age at the time of xenograft implantation. The protocol and any amendment(s) or procedures involving the care and use of animals in this study was reviewed and approved by the Institutional Animal Care and Use Committee (IACUC) of Crown Bioscience Ltd. prior to execution. During the study, the care and use of animals was conducted in accordance with the regulations of the Association for Assessment and Accreditation of Laboratory Animal Care (AAALAC).\nIn vivo modeling, treatment and data analysis.\nWhen the average tumor volume reached 250 mm^3, mice were randomized into groups of 8 based on both tumor volume and body weight.\nTumor volume was measured twice a week.\nDay 0 was the day before treatment started.\nTi and Ci are the mean tumor volumes of the treatment and vehicle groups on the measurement day, respectively; C0 is the mean tumor volume of the vehicle group on day 0.\nTumor volume was monitored bi-weekly by caliper and body weights were recorded. Data presented in FIGS. 1A-1E represent mean±SEM, and N=8 mice/group for FIGS. 1B-1E and N=10 mice/group for FIG. 1A."}, "[2]": {"assay": "LC-MS/MS plasma concentration of formula (10b) and Compound A at end of efficacy study (Example 1)", "assay_type": "in vivo, NOD/SCID mice", "conditions": "for concentration at 8 h / concentration at 2 h: NOD/SCID, mouse, plasma, oral; for concentration at 2 h: Compound A Plasma concentration", "source_text": "Blood collection for pharmacokinetic analysis. Blood from live animals for pharmacokinetic (PK) analyses was obtained via the retro-orbital sinus. The mouse was grasped firmly behind the ears and rotated slightly to one side so that a disposable, sterile microcapillary tube could be inserted behind the eyeball and gently rotated to break the sinus cavity. Blood flowed through the capillary tube, directly into a K2 EDTA tube (Jiangsu KangJian Medical Apparatus Corporation #044022) to a volume of 100 μL. Blood in the tube was inverted several times to distribute the EDTA evenly. To separate plasma, tubes were centrifuged in a bench top centrifuge (Eppendorf, Model 5424R) for 5 minutes at 8000 rpm without braking. The supernatant (plasma) was carefully transferred to a microcentrifuge tube and placed onto dry ice prior to storage at −80° C.\nFor plasma sample analysis, 20 μL of each sample was precipitated with 200 μL of acetonitrile containing Glipizide (100 ng/mL) as an internal standard. This suspension was vortexed for 1 min and centrifuged at 4,000 rpm for 10 min, after which 80 μL of the extract was aliquoted for LC-MS/MS analysis. LC-MS/MS analysis was conducted on a Shimadzu Nexera UHPLC system coupled with a Sciex 6500 TQ-S triple quadrupole mass spectrometer (MS/MS) operated at the positive mode (ESI+). […] The injection volume was 2 μL. The LC mobile phase A was 0.025% formic acid-water containing 1 mM ammonium acetate and B was 100% methanol containing 5 mM ammonium acetate. The gradient (% B) was 2% (0-0.4 min), 2-65% ([…]), 65-90% (0.7 to 1.3 min), 90% (1.3-1.9 min), 90-2% (1.9 to 1.91 min), 2% (1.91-2.5 min). The flow rate was 0.6 mL/min. The column temperature was 60° C."}, "[3]": {"tested_on": "NCI-H358 subcutaneous cell line-derived tumors (NSCLC, KRAS G12C)", "assay": "NCI-H358 subcutaneous cell line-derived xenograft, formula (10b) and sotorasib (Example 2)", "assay_type": "in vivo, NOD/SCID mice", "conditions": "Day 29, n = 10; for Mean Tumor REG: Formula (10b) 100 mg/kg QD PO", "source_text": "(§1) Tumor Cell Line Culture. […] Passage 9 NCI-H358 cells were thawed and expanded, and passage 13 cells were harvested for inoculations. […] Passage 6 NCI-H2122 cells were thawed and expanded, and passage 14 cells were harvested for inoculations.\n(§2) Animal Inoculations and Randomization. All experiments were reviewed and approved by the Crown Bioscience, Inc., Institutional Animal Care and Use Committee (IACUC) prior to execution and performed in accordance with the regulations of the Association for Assessment and Accreditation of Laboratory Animal Care (AAALAC). […] Mice were randomized into four groups (10 mice/group) by tumor volume (size mm^3) 13 days post cell inoculation when the mean tumor volume was 160 mm^3. […] Mice were randomized into four groups (10 mice/group) by tumor volume (size mm^3) 9 days post cell inoculation when the mean tumor volume was 180 mm^3.\n(§3) Tumor and Body Weight Measurements. […] Dosing as well as tumor and body weight measurements were conducted in a Laminar flow cabinet.\n(§4) Statistical analyses. Statistical analyses were performed with GraphPad Prism software (version 9). For statistical analyses comparing the vehicle group to all other groups, two-way repeated-measures analysis of variance (ANOVA) followed by post hoc Tukey's multiple comparisons test of the means was applied over the indicated number of days. For statistical analyses comparing the monotherapy and combination groups, two-way repeated-measures ANOVA was performed between each monotherapy group mean and combination group mean over the number of indicated days. A p value of less than 0.05 was considered statistically significant.\nFemale NOD/SCID mice were implanted subcutaneously with NSCLC NCI-H358 tumor cells. […] Mouse tumor volumes were measured twice weekly until day 34 and results are shown through day 29."}, "[4]": {"tested_on": "NCI-H2122 subcutaneous cell line-derived tumors (NSCLC, KRAS G12C, KEAP1, STK11)", "assay": "NCI-H2122 subcutaneous cell line-derived xenograft, formula (10b) and sotorasib (Example 2)", "assay_type": "in vivo, BALB/c nude mice", "conditions": "Day 21, n = 10; for TGI: Formula (10b) 100 mg/kg QD PO", "source_text": "as §1, §2, §3, §4"}, "[5]": {"assay": "Tolerability / body weight in NCI-H2122 study (Example 2)", "experimental": "Body weights (BW) were also recorded twice weekly. […] Mean body weight changes (±SEM) were recorded for group.\nExperimental Endpoints. Animal health was monitored at least twice weekly through behavioral observations and weight checks. After tumor inoculation, the animals were checked daily for morbidity and mortality. During routine monitoring, the animals were checked for any effects of tumor growth and treatments on behavior such as mobility, food and water consumption, body weight gain/loss, eye/hair matting, and any other abnormalities.\nStudy endpoint was defined when animals reached one of the following criteria for euthanasia: ≥20% body weight loss at any time versus day 1, ≥15% body weight loss for 72 hours versus day 1, individual tumor volume of ≥3000 mm^3, or all mice in each group were euthanized when the mean tumor volume reached ≥2000 mm^3."}, "[6]": {"assay": "Tolerability (body weight, mouse loss) in NCI-H358 xenograft study (Example 1)", "conditions": "for Mean body weight change: Day 29, n = 10; for Mouse loss and observations: n = 8 mice/group", "method": "Dosing started ˜2 weeks post the subcutaneous implantation of the tumor cells. […] Tumor volume was measured twice a week. The body weight and tumor volume were captured in the StudyDirector software version 3.1.399.19 (StudyLog).\nData were analyzed using Microsoft Excel and GraphPad Prism 8.0. Day 0 was the day before treatment started.\nBWi and BW0 are the body weight of an individual mouse on measurement day I and on day 0, respectively."}},
  "note": "Entries after “also recorded” stand apart in the source; their conditions may differ.",
  "data": [
    {"molecule": "Cc1c(N2CCC3(CC2)CO[C@@H](C)[C@H]3N)nc(C)n(-c2cccc(Cl)c2Cl)c1=O", "note": "(atropisomer, axis not shown; (Ra)) [Formula (10b), 6-((3S,4S)-4-amino-3-methyl-2-oxa-8-azaspiro[4.5]decan-8-yl)-3-(Ra)-(2,3-dichlorophenyl)-2,5-dimethylpyrimidin-4(3H)-one]", "values": [
      {"measurement": "Mean tumor regression", "setting": "[1]; Day 29, Formula (10b) 100 mg/kg QD PO, n = 10, FIG. 1A", "value": 14, "unit": "%"},
      {"measurement": "Number of regressions", "setting": "[1]; Day 29, Formula (10b) 100 mg/kg QD, n = 10", "value": "8/10"},
      {"measurement": "Day 21 TGI", "setting": "[1]; Formula (10b) 50 mg/kg QD PO", "value": 46, "unit": "%"},
      {"measurement": "Day 21 TGI", "setting": "[1]; Formula (10b) 50 mg/kg QD PO, listed as formula (10b)", "value": 46, "unit": "%"},
      {"measurement": "Day 21 TGI", "setting": "[1]; Formula (10b) 100 mg/kg QD PO", "value": 89, "unit": "%"},
      {"measurement": "Day 21 TGI", "setting": "[1]; Formula (10b) 100 mg/kg QD PO, listed as formula (10b)", "value": 89, "unit": "%"},
      {"measurement": "effect on growth of NCI-H358 tumors (in words)", "setting": "[1]; formula (10b) monotherapy at 100 mg/kg QD", "value": "approximately tumor stasis"},
      {"measurement": "Formula (10b) Plasma concentration", "setting": "[2]; 8 hours after final dose of formula (10b), Formula (10b) 50 mg/kg QD, mean ± SD, N = 4", "value": "4.44 ± 1.05", "unit": "µM"},
      {"measurement": "Formula (10b) Plasma concentration", "setting": "[2]; 8 hours after final dose of formula (10b), Formula (10b) 100 mg/kg QD, mean ± SD, N = 4", "value": "7.54 ± 1.60", "unit": "µM"},
      {"measurement": "Compound A Plasma concentration", "setting": "[2]; Formula (10b) 50 mg/kg QD alone, BQL = below quantitation limit (3 nM)", "value": "BQL"},
      {"measurement": "Compound A Plasma concentration", "setting": "[2]; Formula (10b) 100 mg/kg QD alone, BQL = below quantitation limit (3 nM)", "value": "BQL"},
      {"measurement": "concentration at 8 h", "setting": "[2]; 50 mg/kg, 8 hours after final dose of formula (10b), Formula (10b) 50 mg/kg QD, mean ± SD, N = 4", "value": 4.4, "unit": "µM"},
      {"measurement": "concentration at 8 h", "setting": "[2]; 100 mg/kg, 8 hours after final dose of formula (10b), Formula (10b) 100 mg/kg QD, mean ± SD, N = 4", "value": 7.5, "unit": "µM"},
      {"measurement": "Mean Tumor Volume (±SEM)", "setting": "[3]; Formula (10b) 100 mg/kg QD PO day 1-28", "value": "138 (±17) mm^3"},
      {"measurement": "Mean Tumor REG", "setting": "[3]", "value": 14, "unit": "%"},
      {"measurement": "Mean Tumor REG", "setting": "[3]; listed as formula (10b)", "value": 14, "unit": "%"},
      {"measurement": "Mean Tumor Volume (±SEM)", "setting": "[4]; Formula (10b) 100 mg/kg QD PO day 1-21", "value": "590 (±48) mm^3"},
      {"measurement": "TGI", "setting": "[4]", "value": 58, "unit": "%"},
      {"measurement": "TGI", "setting": "[4]; listed as formula (10b)", "value": 58, "unit": "%"},
      {"measurement": "body weight loss", "setting": "[5]; formula (10b) 100 mg/kg QD monotherapy, several mice, group placed on diet gel day 11-21", "value": "over 10%"},
      {"measurement": "Mean body weight change", "setting": "[6]; Formula (10b) 100 mg/kg QD", "value": "−6.5", "unit": "%"},
      {"measurement": "Mouse loss and observations", "setting": "[6]; Formula (10b) 50 mg/kg QD, each event = one mouse, BWL = body weight loss", "value": "Day 3 (BWL); also recorded: Day 12 (BWL); also recorded: Day 19 (BWL)"},
      {"measurement": "Mouse loss and observations", "setting": "[6]; Formula (10b) 100 mg/kg QD, each event = one mouse", "value": "Day 18 (Found dead); also recorded: Day 21 (Found dead)"}
    ]},
    {"molecule": "C=CC(=O)N1CCN(c2nc(=O)n(-c3c(C)ccnc3C(C)C)c3nc(-c4c(O)cccc4F)c(F)cc23)[C@@H](C)C1", "note": "[Compound A, 6-fluoro-7-(2-fluoro-6-hydroxyphenyl)-1-[4-methyl-2-(propan-2-yl)pyridin-3-yl]-4-[(2S)-2-methyl-4-(prop-2-enoyl)piperazin-1-yl]pyrido[2,3-d]pyrimidin-2(1H)-one, reference compound]", "values": [
      {"measurement": "Compound A Plasma concentration", "setting": "[2]; 2 hours after final dose of Compound A, Compound A 30 mg/kg QD, mean ± SD, N = 4, 30 mg/kg", "value": "2.02 ± 0.31", "unit": "µM"},
      {"measurement": "Compound A Plasma concentration", "setting": "[2]; 2 hours after final dose of Compound A, Compound A 100 mg/kg QD, mean ± SD, N = 4, 100 mg/kg", "value": "8.77 ± 7.25", "unit": "µM"},
      {"measurement": "Formula (10b) Plasma concentration", "setting": "[2]; Compound A 30 mg/kg QD alone, BQL = below quantitation limit (3 nM)", "value": "BQL"},
      {"measurement": "Formula (10b) Plasma concentration", "setting": "[2]; Compound A 100 mg/kg QD alone, BQL = below quantitation limit (3 nM)", "value": "BQL"},
      {"measurement": "concentration at 2 h", "setting": "[2]; 30 mg/kg, 2 hours after final dose of Compound A, Compound A 30 mg/kg QD, mean ± SD, N = 4", "value": 2, "unit": "µM"},
      {"measurement": "concentration at 2 h", "setting": "[2]; 100 mg/kg, 2 hours after final dose of Compound A, Compound A 100 mg/kg QD, mean ± SD, N = 4", "value": 8.8, "unit": "µM"},
      {"measurement": "Mouse loss and observations", "setting": "[6]; Compound A 30 mg/kg QD", "value": "None"},
      {"measurement": "Mouse loss and observations", "setting": "[6]; Compound A 100 mg/kg QD, dosing day of removal", "value": "None"},
      {"measurement": "Mean body weight change", "setting": "[6]; Compound A 10 mg/kg QD", "value": "−0.3", "unit": "%"}
    ]},
    {"molecule": "C=CC(=O)N1CCN(c2nc(=O)n(-c3c(C)ccnc3C(C)C)c3nc(-c4c(O)cccc4F)c(F)cc23)[C@@H](C)C1", "note": "[Sotorasib, reference compound]", "values": [
      {"measurement": "tolerability / impact on body weights", "setting": "[5]; sotorasib 100 mg/kg QD monotherapy, FIG. 3B", "value": "well tolerated"}
    ]}
  ]
}
